According to ChEMBL document CHEMBL4138131, “Design, synthesis, kinetic mechanism and molecular docking studies of novel 1-pentanoyl-3-arylthioureas as inhibitors of mushroom tyrosinase and free radical scavengers” (Eur J Med Chem, 2017):
Values belong to the molecule of their own block, whether it stands above or below them. Active and inactive are the calls of the source. No cut-off for these calls is given here.

Tests used:
[1] = Antioxidant activity assessed as DPPH radical scavenging activity at 100 ug/ml relative to control; type: functional
[2] = biological target: T1, Tyrosinase (Agaricus bisporus, UniProt O42713); test: Inhibition of mushroom tyrosinase using L-DOPA as substrate preincubated for 10 mins followed by substrate addition measured for 20 mins
T1 sequence (O42713 whole entry): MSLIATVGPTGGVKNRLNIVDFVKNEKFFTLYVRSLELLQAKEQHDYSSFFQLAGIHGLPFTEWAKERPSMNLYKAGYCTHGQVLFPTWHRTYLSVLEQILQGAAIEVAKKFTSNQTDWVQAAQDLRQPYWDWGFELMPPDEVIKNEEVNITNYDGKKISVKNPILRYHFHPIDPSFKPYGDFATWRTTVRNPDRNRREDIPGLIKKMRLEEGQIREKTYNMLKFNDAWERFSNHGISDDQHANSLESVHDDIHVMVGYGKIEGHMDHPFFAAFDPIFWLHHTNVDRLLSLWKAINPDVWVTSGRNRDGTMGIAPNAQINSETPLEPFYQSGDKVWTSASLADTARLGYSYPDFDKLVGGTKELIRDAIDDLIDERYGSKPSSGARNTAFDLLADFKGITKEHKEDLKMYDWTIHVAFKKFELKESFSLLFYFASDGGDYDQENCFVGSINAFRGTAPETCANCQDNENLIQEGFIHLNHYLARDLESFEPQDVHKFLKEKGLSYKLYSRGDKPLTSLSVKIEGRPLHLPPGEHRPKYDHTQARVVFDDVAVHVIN

[3] = biological target: T2, Tyrosinase (Agaricus bisporus) (UniProt O42713); test: Non-competitive inhibition of mushroom tyrosinase assessed as 1/Vmax at 4.336 uM using L-DOPA as substrate preincubated for 10 mins followed by substrate addition measured up to 5 mins by Line-weaver Burk plot analysis
T2 sequence (whole entry): T1 sequence (O42713 whole entry)

[4] = biological target: T2, Tyrosinase (Agaricus bisporus); test: Non-competitive inhibition of mushroom tyrosinase assessed as 1/Vmax at 0.542 uM using L-DOPA as substrate preincubated for 10 mins followed by substrate addition measured up to 5 mins by Line-weaver Burk plot analysis
[5] = biological target: T1, Tyrosinase; test: Non-competitive inhibition of mushroom tyrosinase using L-DOPA as substrate preincubated for 10 mins followed by substrate addition measured up to 5 mins by Dixon plot analysis
[6] = biological target: T2, Tyrosinase (Agaricus bisporus); test: Non-competitive inhibition of mushroom tyrosinase assessed as 1/Vmax at 0.271 uM using L-DOPA as substrate preincubated for 10 mins followed by substrate addition measured up to 5 mins by Line-weaver Burk plot analysis
[7] = biological target: T2, Tyrosinase (Agaricus bisporus); test: Non-competitive inhibition of mushroom tyrosinase at 0.271 to 4.336 uM using L-DOPA as substrate preincubated for 10 mins followed by substrate addition measured up to 5 mins by Line-weaver Burk plot analysis
[8] = biological target: T2, Tyrosinase (Agaricus bisporus); test: Irreversible inhibition of mushroom tyrosinase at 0.271 to 4.336 uM using L-DOPA as substrate preincubated for 10 mins followed by substrate addition measured up to 5 mins by Line-weaver Burk plot analysis
[9] = biological target: T2, Tyrosinase (Agaricus bisporus); test: Non-competitive inhibition of mushroom tyrosinase assessed as 1/Vmax at 2.18 uM using L-DOPA as substrate preincubated for 10 mins followed by substrate addition measured up to 5 mins by Line-weaver Burk plot analysis
[10] = biological target: T2, Tyrosinase (Agaricus bisporus); test: Potency index ratio of kojic acid IC50 to compound IC50 for inhibition of mushroom tyrosinase
[11] = biological target: T2, Tyrosinase (Agaricus bisporus); test: Non-competitive inhibition of mushroom tyrosinase assessed as 1/Vmax at 1.084 uM using L-DOPA as substrate preincubated for 10 mins followed by substrate addition measured up to 5 mins by Line-weaver Burk plot analysis
[12] = compound: CCCCC(=O)NC(=S)Nc1ccc(OC)cc1; test: Non-competitive inhibition of mushroom tyrosinase assessed as substrate Km at 1.084 uM using L-DOPA as substrate preincubated for 10 mins followed by substrate addition measured up to 5 mins by Line-weaver Burk plot analysis; details: Agaricus bisporus
[13] = compound: CCCCC(=O)NC(=S)Nc1ccc(OC)cc1; test: Non-competitive inhibition of mushroom tyrosinase assessed as substrate Km at 0.271 uM using L-DOPA as substrate preincubated for 10 mins followed by substrate addition measured up to 5 mins by Line-weaver Burk plot analysis; details: Agaricus bisporus
[14] = compound: CCCCC(=O)NC(=S)Nc1ccc(OC)cc1; test: Non-competitive inhibition of mushroom tyrosinase assessed as substrate Km at 4.336 uM using L-DOPA as substrate preincubated for 10 mins followed by substrate addition measured up to 5 mins by Line-weaver Burk plot analysis; details: Agaricus bisporus
[15] = compound: CCCCC(=O)NC(=S)Nc1ccc(OC)cc1; test: Non-competitive inhibition of mushroom tyrosinase assessed as substrate Km at 0.542 uM using L-DOPA as substrate preincubated for 10 mins followed by substrate addition measured up to 5 mins by Line-weaver Burk plot analysis; details: Agaricus bisporus
[16] = compound: CCCCC(=O)NC(=S)Nc1ccc(OC)cc1; test: Non-competitive inhibition of mushroom tyrosinase assessed as substrate Km at 2.18 uM using L-DOPA as substrate preincubated for 10 mins followed by substrate addition measured up to 5 mins by Line-weaver Burk plot analysis; details: Agaricus bisporus

Molecule: CCCCC(=O)NC(=S)Nc1c(C)cc(C)cc1C
Activity [1]: inactive
IC50 [2]: 19.7 µM

Molecule: CCCCC(=O)NC(=S)Nc1ccc([N+](=O)[O-])cc1
Activity [1]: inactive
IC50 [2]: 7.99 µM

Molecule: CCCCC(=O)NC(=S)Nc1ccc(OC)cc1
1/Vmax [3]: 186000 deltaA/s
Activity [1]: 80%
1/Vmax [4]: 52400 deltaA/s
Ki [5]: 1.1 µM
1/Vmax [6]: 28600 deltaA/s
inhibition [7]: Active
inhibition [8]: Active
IC50 [2]: 1.57 µM
1/Vmax [9]: 110000 deltaA/s
Ratio IC50 [10]: 15
1/Vmax [11]: 90500 deltaA/s

Molecule: CCCCC(=O)NC(=S)Nc1cccc([N+](=O)[O-])c1
Activity [1]: inactive
IC50 [2]: 16.6 µM

B1: Tyrosinase (Agaricus bisporus), O42713 (protein)
chain: T1 sequence (O42713 whole entry)
Km [12]: 389 µM
Km [13]: 389 µM
Km [14]: 389 µM
Km [15]: 389 µM
Km [16]: 389 µM

Further lines, with some results ahead:

IC50 [2]: 10.1 µM
Molecule: CCCCC(=O)NC(=S)Nc1ccc([N+](=O)[O-])cc1[N+](=O)[O-]
Activity [1]: inactive

IC50 [2]: 3.37 µM
Molecule: CCCCC(=O)NC(=S)Nc1ccc(Br)cc1
Activity [1]: inactive

IC50 [2]: 6.46 µM
Molecule: CCCCC(=O)NC(=S)Nc1ccc(Br)cc1F
Activity [1]: inactive

IC50 [2]: 19.5 µM
Molecule: CCCCC(=O)NC(=S)Nc1c(Br)cc(F)cc1Br
Activity [1]: inactive

IC50 [2]: 7.75 µM
Molecule: CCCCC(=O)NC(=S)Nc1cccc(Cl)c1Cl
Activity [1]: inactive

IC50 [2]: 2.32 µM
Molecule: CCCCC(=O)NC(=S)Nc1ccc(Cl)cc1
Activity [1]: inactive
